Experiments:
Format in all cases: functional
Design in all cases: concentration or dose not given beside the values
Plasmodium berghei = test: MMV: P. berghei-infected blood was withdrawn from mice by cardiac pucture before being immediately added to ookinete culture medium containing test compounds. 26 hr later, GFP-positive ookinetes were identified and counted by automated microscopy. All compounds were tested in 4 independent experiments and data presented here is the mean.
Plasmodium falciparum [1] = test: (§1) MMV: P. falciparum NF54 functionally mature Stage V gametocytes were incubated for 24 hr in the presence of the test compounds. Gamete formation was then triggered by addition of 2uM xantheurenic acid and temperature decrease to ~20C. Male gamete exflagellation was recorded and analysed by automated microscopy after 20 min. All compounds were tested in 4 independent experiments and data presented here is the mean.
Plasmodium falciparum [2] = test: as §1, with “Female” for “Male”, “formation” for “exflagellation”, “24 hr later” for “and analysed”, “detection of surface labelling of female gametes with a Cy3-conjugated antibody reactive to Pfs25.” for “after 20 min.”; settings: NF54, 24 h

Row | Compound | inhibition (Plasmodium berghei) [%] | inhibition (Plasmodium falciparum [1]) [%] | inhibition (Plasmodium falciparum [2]) [%]
1 | Cc1cc(C=C2SC(=Nc3ccccc3)N(C3CCCC3)C2=O)c(C)n1-c1ccc(Cl)cc1 | -28.39 | 31.4 | -30.5
2 | CCN(CC)c1cc(C)c2cc(NC(=O)c3cccc(OC)c3)ccc2n1 | -7.501 | -1.32 | -22.1
3 | CCOC(=O)C1=C(C)N=c2sc(=Cc3cc(Cl)ccc3O)c(=O)n2C1c1ccc(OC)cc1 (stereo not drawn) | 5.932 | -29.2 | -13
4 | COc1cccc(Nc2nc(NCCO)c3ccccc3n2)c1.Cl | -13.29 | -137 | -29.6
5 | COc1cc(C(=O)ON=C(N)Cc2cccc3ccccc23)cc(OC)c1OC | -15.26 | -12.8 | -26.8
6 | Clc1ccc2c(N3CCCC3)ccnc2c1 | -9.994 | 33.7 | 5.78
7 | N=c1n(CCN2CCCCC2)c2ccccc2n1CC(=O)c1ccc(Cl)c(Cl)c1 | -13.93 | -14.4 | -16.3
8 | CCOc1ccc(CN2CCN(CC(O)COc3ccc(OCC(O)CN4CCN(Cc5ccc(OCC)cc5)CC4)cc3)CC2)cc1 (stereo not drawn) | -13.58 | -9.77 | -37.4
9 | Oc1ccc2ccccc2c1CNc1nc2ccccc2[nH]1 | -28.7 | 31.6 | -19.1
10 | CCOc1cc(Cl)c(C(C)NC(=O)c2cccc(OC)c2)cc1OCC (stereo not drawn) | -8.297 | 3.61 | -14.9
11 | COc1cc(OC)cc(N2C(=O)N(Cc3ccc(C(C)(C)C)cc3)c3ccccc3S2(=O)=O)c1 | -1.934 | 8.32 | -7.89
12 | CCOC(=O)c1cnc2c(C)cccc2c1Nc1ccc(C(C)=O)cc1 | 1.277 | 13 | -9.63
13 | CC(C)(C)c1ccc(O)c(CNC2CCCCC2)c1 | -33.89 | -29.4 | 3.67
14 | COc1cc(C(=O)Nc2ccc(-c3nc4ccccc4[nH]3)cc2)cc(OC)c1OC | 21.1 | -40.5 | -25.2
15 | O=C(CSc1ccc2nnc(-c3cccc(F)c3)n2n1)Nc1ccc2c(c1)OCO2 | -8.438 | -1.24 | -24.8
16 | COc1ccc(Nc2cc(C)nc(NCc3ccccc3)n2)cc1 | -20.03 | -9.51 | -30.5
17 | Cc1ccccc1OCCSc1nc2ccc(NC(=O)c3cccs3)cc2s1 | -6.357 | 11.6 | -2.71
18 | Cc1cc(N2CCN(C3CCCC3)CC2)n2c(nc3ccccc32)c1C#N | -5.169 | 6.61 | -12.2
19 | COCCn1c(C)nc2ccccc2c1=O | -11.98 | 22.3 | -15.4
20 | COc1ccc(CCN2CCC(CN(C)Cc3cnn(-c4ccccc4)c3)CC2)cc1 | -8.146 | -4.67 | -27.5
21 | N#Cc1nc(Cc2cccc3ccccc23)oc1N1CCN(C(c2ccccc2)c2ccccc2)CC1 | -7.443 | 10.2 | -38.4

Row | Compound | inhibition (Plasmodium berghei) [%] | inhibition (Plasmodium falciparum [1]) [%] | inhibition (Plasmodium falciparum [2]) [%]
22 | COc1ccc(-c2cc3c(SCC(=O)Nc4cc(C(F)(F)F)ccc4Cl)nccn3n2)cc1 | -25.97 | 23.5 | -16.8
23 | Cc1ccc(CN2CCC(C(=O)Nc3ccc(-c4cc5ccccc5[nH]4)cc3)CC2)o1 | -4.815 | 7.05 | -19.7
24 | COc1cc(CNCCc2ccc(Cl)cc2)cc(OC)c1O | -10.96 | -14.1 | -40.5
25 | Cc1ccc(N2C3c4ccccc4N(S(=O)(=O)c4ccc(C)cc4)C2c2ccccc2N3S(=O)(=O)c2ccc(C)cc2)cc1 | -13.78 | 24.2 | -6.27
26 | CCOC(=O)C1=C(C)N=c2sc(=Cc3ccccc3O)c(=O)n2C1c1ccc(OC)c2ccccc12 (stereo not drawn) | 3.682 | -4.7 | -23.7
27 | Cc1[nH]c(-c2ccc(F)cc2)cc1C(=O)NC1CCN(Cc2ccccc2)CC1 | -7.189 | 7.06 | -3.53
28 | CCOc1ccc2nc(C)cc(Nc3ccc(Br)cc3)c2c1 | -16.41 | -29.1 | -27.4
29 | COC(=O)c1ccc(Cl)c2c1C1C=CCC1C(c1cccc3ccccc13)N2 (stereo not drawn) | -8.751 | 42.4 | 10.4
30 | COc1ccc(Br)cc1C1Nc2ccc3ccccc3c2C2=C1C(=O)CC(c1ccccc1)C2 (stereo not drawn) | -18.54 | 9.97 | -13.2
31 | CCN1CCN(c2cc(C)c3cc(NC(=O)c4ccc(OC)c(OC)c4)ccc3n2)CC1 | -2.902 | -3.72 | -8.68
32 | CCN(CC)CCCNc1nc(-c2ccc(Cl)cc2)nc2ccccc12 | -4.546 | -49.2 | -19.2
33 | COc1ccc(-c2nc3cc(Cc4ccc5[nH]c(-c6ccc(OC)cc6)nc5c4)ccc3[nH]2)cc1 | -5.308 | 28.3 | -12.5
34 | COc1cccc(-c2nn(C)c3sc(C(=O)NCCN4CCN(c5ccccc5F)CC4)cc23)c1 | 2.067 | 14.1 | -2.79
35 | COc1ccc2sc(N(Cc3cccnc3)C(=O)c3ccc(C#N)cc3)nc2c1 | -20.76 | 18.5 | -25.4
36 | CCOc1ccccc1CN1CCc2nc3cc(C(C)(C)C)nn3c(O)c2C1 | 19.57 | 3.23 | 5.87
37 | O=C(Nc1ccc(Cl)c(Cl)c1)Nc1ccc(Cl)c(Cl)c1 | -17.89 | -55.6 | -21.6
38 | CCCn1c(=N)c(C(=O)NC2CCCCC2)cc2c(=O)n3cccc(C)c3nc21 | -1.292 | 22.1 | -11.9
39 | Cc1ccc(-c2nc3ccccc3o2)cc1NCc1cc(Cc2ccccc2)ccc1O | -14.9 | 13.9 | -8.19
40 | CC1CN(C(=O)c2sc3ccccc3c2Cl)CC(C)O1 (stereo not drawn) | -8.352 | 35.6 | -12.3
41 | CCOC(=O)C1(Cc2ccccc2)CCN(Cc2cccc(OC)c2O)CC1 | -6.801 | -10.2 | -9.84
42 | O=[N+]([O-])c1ccc(C=NNc2nc3ccccc3[nH]2)cc1 | -19.94 | 18.3 | -17

Row | Compound | inhibition (Plasmodium berghei) [%] | inhibition (Plasmodium falciparum [1]) [%] | inhibition (Plasmodium falciparum [2]) [%]
43 | Oc1ccc(-c2nc(-c3ccc4oc5ccc(-c6[nH]c(-c7ccc(O)cc7)nc6-c6ccccc6)cc5c4c3)c(-c3ccccc3)[nH]2)cc1 | -6.694 | 3.81 | -4.38
44 | COc1ccc(OC)c(C2C3=C(CC(C)(C)CC3=O)N(c3ccc(Cl)c(Cl)c3)C3=C2C(=O)CC(C)(C)C3)c1 | -8.364 | -60 | -10.6
45 | O=C1CC(O)(C(F)(F)C(F)(F)F)Oc2ccccc21 (stereo not drawn) | -0.9117 |  | -15.2
46 | FC(F)(F)c1cccc(Nc2nc(-c3ccccc3)nc3ncccc23)c1 | -9.471 | 10.8 | 8.9
47 | CCN(CC)CCNc1ccnc2cc(Cl)ccc12 | -23.67 | -16.3 | -29.9
48 | CCC(c1ccccc1)c1nn2c(-c3cccs3)nnc2s1 (stereo not drawn) | -15.76 | 1.43 | -48.4
49 | CCOc1c(Cl)cc(CNC(C)C(O)c2ccccc2)cc1OC (stereo not drawn) | -12.71 | 11.3 | -16
50 | CCOc1cc(CNC(C)C(O)c2ccccc2)cc(Cl)c1OCC (stereo not drawn) | -7.956 | 11.6 | -44.5
51 | COc1cc(-c2nc(-c3ccccc3)c(-c3ccccc3)[nH]2)cc(OC)c1O | -13.75 | 5 | -41.1
52 | COc1ccccc1N1CCN(C(CNS(=O)(=O)c2ccc(Cl)cc2)c2cccnc2)CC1 (stereo not drawn) | -1.627 | 3.66 | -39.2
53 | O=C(Nc1ccccc1O)c1ccc(-c2ccc(Cl)cc2Cl)o1 | -6.243 | 18.9 | -20.6
54 | COc1ccc2nc(C)cc(Nc3ccccc3O)c2c1 | -6.855 | -8.38 | -42
55 | O=C1c2ccc3c4c(ccc(c24)C(=O)N1CCCCO)C(=O)N(CCCCO)C3=O | -0.9886 | -2.41 | -45.3
56 | COc1ccc(C(C)=O)cc1N1C(=O)C2C(C1=O)C1(c3ccccc3)C(=O)C2(c2ccccc2)C(c2ccc(C)cc2)=C1c1ccc(C)cc1 (stereo not drawn) | -19.71 | 21.8 | -9.11
57 | CCCc1c(C)nc2ccc(Br)cc2c1O | 47.59 | -14.5 | -18.5
58 | CCCCCCOC(=O)C1=C(C)NC(=O)NC1c1ccccc1F (stereo not drawn) | -7.086 | 11.4 | -1.36
59 | FC(F)(F)c1cccc(Nc2nc3ccccc3nc2Nc2cccc(C(F)(F)F)c2)c1 | -0.8978 | 24.6 | -14.6
60 | CCc1ccc(Nc2cc(C)c3ccc(O)cc3n2)cc1.Cl | -20.95 | 15.2 | -14
61 | CN(C)c1ccc(-c2nc3cc(N)ccc3[nH]2)cc1 | -2.982 | 12.2 | -7.9
62 | CCOc1ccc(/C=C/c2nc(=O)c3ccccc3o2)cc1 | -4.823 | 23.7 | -30.2
63 | CCN1CCN(Cc2ccc(NC(=O)c3cc4ccc5cccnc5c4[nH]3)cc2)CC1 | -14.48 | 15.9 | -5.39

Reference: ChEMBL document CHEMBL3301451, “MMV Malaria Box gametocyte functional viability assay screening”
